The source of these data is paper PMC9947975, “Design, Synthesis, and Biological Evaluation Studies of Novel Naphthalene-Chalcone Hybrids As Antimicrobial, Anticandidal, Anticancer, and VEGFR-2 Inhibitors” (ACS Omega, 2023).

Values after ≈ are worked out from the molar mass of the structure shown.

The test system of data set [1] is S. epidermidis (ATCC 12228). As to the kind of experiment: Antibacterial activity, MIC50 by resazurin fluorometric measurement. The format is cell-based, Staphylococcus epidermidis. To be noted: Staphylococcus epidermidis, ATCC12228, means of triplicate assays; read-out: MIC50 S. epidermis. The protocol: (§1) Obtained compounds (2a–2j) were evaluated for antibacterial activity against Escherichia coli (E. coli) (ATCC 25922), Pseudomonas aeruginosa (P. aeruginosa) (ATCC 27853), […] (E. faecalis) (ATCC 2942), Bacillus subtilis (B. subtilis) (ATCC 6051), Staphylococcus aureus (S. aureus) (ATCC 29213), and Staphylococcus epidermidis (S. epidermidis) (ATCC 12228). MIC50 values were determined via fluorometric measurements, using resazurin solution.[13] Azithromycin was used as a standard drug in the antibacterial activity test.
(§2) The antimicrobial activity of obtained derivatives (2a–2j) was screened on six bacterial and three fungal strains according to the standard procedure of CLSI[20] as described in the previous study.[21] The antibacterial activities of the obtained compounds were screened against B. subtilis (ATCC 6051), E. coli (ATCC 25922), E. faecalis (ATCC 2942), P. aeruginosa (ATCC 27853), S. aureus (ATCC 29213), and S. epidermidis (ATCC 12228). The obtained compounds were evaluated for anticandidal activity against C. albicans (ATCC 24433), C. krusei (ATCC 6258), and C. parapsilopsis (ATCC 22019). For antibacterial activity, azithromycin was utilized as a reference drug, whereas voriconazole and fluconazole were used for anticandidal activity.

Another data set deals with E. coli (ATCC 25922). The data set is described as above. To be noted: Escherichia coli, ATCC25922; means of triplicate assays. The data set is classed as cell-based. The protocol: as §1, §2
The subject of another data set is B. subtilis (ATCC 6051). The data set is described as above. The format is cell-based. Conditions: Bacillus subtilis, ATCC6051; means of triplicate assays. The protocol: as §1, §2
Data set [2] relates to P. aeruginosa (ATCC 27853). The description is as above. The data set is classed as cell-based. Conditions: Pseudomonas aeruginosa, ATCC27853; means of triplicate assays. The protocol: as §1, §2
In another data set the test system is C. krusei (ATCC 6258). As to the kind of experiment: Anticandidal activity, MIC50 by resazurin fluorometric measurement. To be noted: Pichia kudriavzevii, ATCC6258, means of triplicate assays. The data set is classed as cell-based, Candida krusei. As for the experimental part: (§3) Obtained compounds (2a–2j) were evaluated for anticandidal activity against Candida albicans (C. albicans) (ATCC 24433), Candida krusei (C. krusei) (ATCC 6258), and Candida parapsilopsis (C. parapsilopsis) (ATCC 22019). MIC50 values were determined via fluorometric measurements, using resazurin solution.[13] Voriconazole and fluconazole were used as a standard drug in the anticandidal activity test. […] In general, it is seen that the 2-methoxyethyl substituent increases the anticandidal activity.
as §2

Another data set relates to S. aureus (ATCC 29213). The data set can be described thus: Antibacterial activity, MIC50 by resazurin fluorometric measurement. To be noted: Staphylococcus aureus, ATCC29213, means of triplicate assays. The format is cell-based, Staphylococcus aureus. The protocol:
as §1, §2

The next data set has as its system E. faecalis (ATCC 2942). The description is as above. The format is cell-based, Enterococcus faecalis. To be noted: Enterococcus faecalis, ATCC2942, means of triplicate assays. As for the experimental part:
as §1, §2

In the next data set the test system is HepG2 cell line. The data set can be described thus: MTT cytotoxicity test. The data set is classed as cell-based. Conditions: Homo sapiens, 24-h treatment, means of quartet assays ± SEM. As for the experimental part:
(§4) The MTT test was performed using 3 different cell lines for calculated IC50 values of obtained compounds. […] For this purpose, the cytotoxic effects of the compounds against the healthy mouse fibroblast cell (NIH3T3) were investigated.
(§5) The 3-(4,5-dimethylthiazol-2-yl)-2,5-diphenyltetrazolium salt reduction method, or MTT assay, is used to measure the metabolic activity of live cells. […] Doxorubicin is used as a therapeutic drug. MTT assays were carried out as previously explained.[19]

The next data set deals with A549 cell line. As to the kind of experiment: MTT cytotoxicity test. The data set is classed as cell-based. To be noted: Homo sapiens, A549, 24 h, MTT, 24-h treatment, means of quartet assays ± SEM. As for the experimental part:
as §4, §5

Data set [3] concerns healthy mouse fibroblast cell (NIH3T3). As to the kind of experiment: MTT cytotoxicity test on healthy cells. The format is cell-based. Conditions: 24-h treatment, means of quartet assays ± SEM. As for the experimental part: as §4, §5
The next data set deals with C. albicans (ATCC 24433). The data set can be described thus: Anticandidal activity, MIC50 by resazurin fluorometric measurement. The data set is classed as cell-based, Candida albicans. To be noted: Candida albicans, ATCC24433, means of triplicate assays. As for the experimental part:
as §3, §2

The test system of data set [4] is C. parapsilopsis (ATCC 22019). The description is as above. Conditions: Candida, ATCC22019; means of triplicate assays. The format is cell-based, Candida parapsilopsis. The protocol:
as §3, §2

On to `CCN1CCN(c2ccc(C(=O)C=Cc3ccc4ccccc4c3)cc2)CC1` [2g, 1-(4-(4-Ethylpiperazin-1-yl)phenyl)-3-(naphthalen-2-yl)prop-2-en-1-one], for which the melting point is 196.5 to 198 °C. In data set [1], the MIC50 came to 62.5 µg/mL (≈ 169 µM). This compound came in with an MIC50 in the data set on E. coli (ATCC 25922) of over 100 µg/mL. Besides, the MIC50 in the data set on B. subtilis (ATCC 6051) was over 100 µg/mL. This compound also showed an MIC50 in [2] of over 100 µg/mL. Further, the MIC50 in the data set on C. krusei (ATCC 6258) is over 100 µg/mL. This compound gave an MIC50 against S. aureus (ATCC 29213) of over 100 µg/mL. The compound also came in with an MIC50 against E. faecalis (ATCC 2942) of 31.3 µg/mL (≈ 84.5 µM). Also, in the data set with HepG2 cell line, inhibition was half-maximal at 35.6 ± 0.98 µM (IC50). In addition, in the data set with A549 cell line, the midpoint of inhibition, the IC50, lay at 39.1 ± 1.24 µM. Moreover, the IC50 in data set [3] amounted to 52.4 ± 2.57 µM. The MIC50 in the data set on C. albicans (ATCC 24433) was 31.3 µg/mL (≈ 84.5 µM). Further, in [4], the MIC50 is over 100 µg/mL.

`CC(C)N1CCN(c2ccc(C(=O)C=Cc3ccc4ccccc4c3)cc2)CC1` [2h, 1-(4-(4-Isopropylpiperazin-1-yl)phenyl)-3-(naphthalen-2-yl)prop-2-en-1-one] registered a melting point of 213.3 to 214.9 °C. Moreover, the MIC50 in data set [1] was determined as 62.5 µg/mL (≈ 163 µM). The compound further displayed an MIC50 with E. coli (ATCC 25922) of over 100 µg/mL. The MIC50 against B. subtilis (ATCC 6051) is over 100 µg/mL. In data set [2], the MIC50 is over 100 µg/mL. The compound further showed an MIC50 against C. krusei (ATCC 6258) of over 100 µg/mL. In the data set with S. aureus (ATCC 29213), this compound registered an MIC50 of over 100 µg/mL. In the data set with E. faecalis (ATCC 2942), the MIC50 was determined as 31.3 µg/mL (≈ 81.4 µM). Further, 46.3 ± 1.25 µM corresponded to half-maximal inhibition in the data set on HepG2 cell line (IC50). This compound came in with an IC50 with A549 cell line of 41.3 ± 1.5 µM. This compound also gave an IC50 in [3] of 66.5 ± 0.98 µM. The MIC50 against C. albicans (ATCC 24433) was 31.3 µg/mL (≈ 81.4 µM). For the same compound, the MIC50 in data set [4] was over 100 µg/mL.

For the compound `C=CCN1CCN(c2ccc(C(=O)C=Cc3ccc4ccccc4c3)cc2)CC1` [2i, 1-(4-(4-Allylpiperazin-1-yl)phenyl)-3-(naphthalen-2-yl)prop-2-en-1-one], the melting point lay in the range of 186.9 to 188.8 °C. Besides, in data set [1], the MIC50 is 31.3 µg/mL (≈ 81.8 µM). In addition, the MIC50 with E. coli (ATCC 25922) was over 100 µg/mL. This compound also displayed an MIC50 against B. subtilis (ATCC 6051) of over 100 µg/mL. The compound also registered an MIC50 in data set [2] of over 100 µg/mL. Further, in the data set on C. krusei (ATCC 6258), the MIC50 is over 100 µg/mL. In the data set on S. aureus (ATCC 29213), this compound gave an MIC50 of over 100 µg/mL. For the same compound, the MIC50 against E. faecalis (ATCC 2942) was 31.3 µg/mL (≈ 81.8 µM). The same compound came in with an IC50 with HepG2 cell line of 97.1 ± 4.94 µM. This compound returned an IC50 in the data set on A549 cell line of 21.4 ± 2.56 µM. This compound gave an IC50 in [3] of over 100 µM. The compound further displayed an MIC50 with C. albicans (ATCC 24433) of 31.3 µg/mL (≈ 81.8 µM). The compound also came in with an MIC50 in data set [4] of over 100 µg/mL.

In the case of `CC[C@H]1OC(=O)[C@H](C)[C@@H](O[C@H]2C[C@@](C)(OC)[C@@H](O)[C@H](C)O2)[C@H](C)[C@@H](O[C@@H]2O[C@H](C)C[C@H](N(C)C)[C@H]2O)[C@](C)(O)C[C@@H](C)CN(C)[C@H](C)[C@@H](O)[C@]1(C)O` [SD1, Azithromycin, reference compound], the MIC50 (in data set [1]; against E. coli (ATCC 25922); against B. subtilis (ATCC 6051); in data set [2]; in the data set with S. aureus (ATCC 29213); in the data set on E. faecalis (ATCC 2942)) was under 0.97 µg/mL throughout.

For `C[C@@H](c1ncncc1F)[C@](O)(Cn1cncn1)c1ccc(F)cc1F` [SD2, Voriconazole, reference compound], the MIC50 is 3.9 µg/mL (≈ 11.2 µM) in the data set on C. krusei (ATCC 6258), 3.9 µg/mL (≈ 11.2 µM) against C. albicans (ATCC 24433) and 1.95 µg/mL (≈ 5.58 µM) in data set [4].

For the compound `OC(Cn1cncn1)(Cn1cncn1)c1ccc(F)cc1F` [SD3, Fluconazole, reference compound], the MIC50 is 7.81 µg/mL (≈ 25.5 µM) with C. krusei (ATCC 6258), 7.81 µg/mL (≈ 25.5 µM) in the data set with C. albicans (ATCC 24433) and 3.9 µg/mL (≈ 12.7 µM) in data set [4].
